Test [1] concerns the target EGFR (Homo sapiens, UniProt P00533). Nature of the test: Kinase profiler assay, EGFR. The note with it: bound stated jointly for the other protein kinases; Table S3. In kind it is biochemical. How it is done:
(§1) The effects of LLL12 on twenty six purified human protein kinases were performed at the Millipore UK Limited (Dundee, UK) and Reaction Biology Corp. (Malvern, PA) using the Kinase profiler assay. Assays contained a peptide substrate, purified recombinant human protein kinases to be tested, and gamma-labeled ATP, magnesiumion. Radioactive phosphorylated product was measured and quantitated via a scintillation counter.

Test [2] deals with ErB2/HER2 (Homo sapiens, UniProt P04626). The note with it: read-out: IC50 on ErB2/HER2; bound stated jointly for the other protein kinases; Table S3. How it is done: as §1
Test [3] deals with c-SRC (Homo sapiens, UniProt P12931). Kind of test: Kinase profiler assay, c-SRC. Particulars: 10 concentrations, 100 µM highest; Table S3. The class given is biochemical. How it is done:
as §1

The target of test [4] is PYK2 (Homo sapiens, UniProt Q14289). Nature of the test: Kinase profiler assay, PYK2. The class given is biochemical. Particulars: 10 concentrations, 100 µM highest; Table S3. As for the experimental part:
as §1

The subject of test [5] is STAT3. Particulars: cited from earlier work.
The subject of test [6] is ALDH+/CD44+/CD24− subpopulation of MDA-MB-231 and SUM159 breast cancer cells. Nature of the test: Cell viability of ALDH+/CD44+/CD24− subpopulation. In kind it is cell-based, human. The note with it: Figure 5D. As for the experimental part:
The breast cancer cells were seeded in 96-well plates (3,000 cells/well) in triplicates in a serum-free mammary epithelial basal medium. The following day, cancer cells were treated with 1 to 10 µmol/L of LLL12 or Stattic for 72 hours, STAT3 ShRNA or control GFP shRNA lentivirus (CTL ShRNA) for 48 hours. MTT (Thiazolyl Blue Tetrazolium Bromide, Sigma-Aldrich) assay was used to determine the cell viability.

The test system of test [7] is ALDH1. Nature of the test: ALDH1 protein expression in ALDH+ cells. The class given is cell-based, human. As for the experimental part:
(§2) After sorting by flow cytometry, ALDH^+ and ALDH^+/CD44^+/CD24^− stem-like cells were cultured in serum-free stem cell medium in ultra-low attachment six-well plates (Corning) to maintain cancer stem cell characteristics. ALDH^−, ALDH^−/CD44^+/CD24^+cells and un-separated cells were cultured in regular medium and replaced with identical stem cell medium for three days before being harvested. To assess the effects of STAT3 inhibitors, ALDH^+ and ALDH^+/CD44^+/CD24^− subpopulations of breast cancer cells were treated with LLL12 (5 µmol/L) of or static (10 µmol/L) for 24 hours. STAT3, or control GFP shRNA lentivirus (CTL ShRNA) was introduced into ALDH^+ breast cancer stem-like cells for 48 hours, then followed by selection with puromycin (0.2 µg/ml) for 72 hours. Antibodies (Cell Signaling Tech.) against phospho-specific STAT3 (Tyrosine 705) (P-STAT3, Y705), ERK1/2 (Threonine 202/Tyrosine 204), cleaved Poly (ADP-ribose) polymerase (PARP), ALDH1, cleaved caspase-3, and GAPDH were used for western blots.

Test [8] concerns MDA-MB-231, SK-BR-3, and SUM159 breast cancer cell lines. Nature of the test: Apoptosis (cleaved PARP and Caspase-3) in un-separated breast cancer cells. In kind it is cell-based, human. Particulars: un-separated MDA-MB-231, SK-BR-3, SUM159 cells; 10 µM, 24 hours. How it is done:
as §2
LLL12 was synthesized in Dr. Pui-Kai Li’s laboratory (College of Pharmacy, The Ohio State University). Un-separated cells were treated with 10 µM of LLL12 or DMSO for 24 hours, and the phosphorylation of STAT3 (Y705), and ERK 1/2 (T202/Y204), and expression of STAT3 downstream genes, cleaved caspase-3, and PARP were detected by Western blots. (JPG) Click here for additional data file.

Test [9] addresses PDK1 (Homo sapiens, UniProt O15530). Nature of the test: Kinase profiler assay, PDK1. In kind it is biochemical. Particulars: bound stated jointly for the other protein kinases; Table S3. As for the experimental part:
as §1

The test system of test [10] is STAT3 phosphorylation. Nature of the test: Western blot of STAT3 phosphorylation in ALDH+/CD44+/CD24− cells. The class given is cell-based, human. Particulars: ALDH+/CD44+/CD24− subpopulation of MDA-MB-231 and SUM159; 0.5–5 µM. How it is done:
The ALDEFLUOR kit (StemCell Technologies) was used to isolate the population with high ALDH enzymatic activity as previously described. Briefly, cells were trypsinized to single cells using 0.05% trypsin and subsequently suspended in ALDEFLUOR assay buffer containing ALDH substrate (BAAA, 1 µmol/l per 1×10^6 cells) and then incubated for 40 minutes at 37°C. For each sample, an aliquot of cells was stained under identical conditions with 15 mmol/L diethylaminobenzaldehyde (DEAB), a specific ALDH inhibitor, as an ALDH^− control. Anti-human PE-CD24 and PE-Cy5-CD44 antibody (BioLegend) were used for CD44/CD24 identification and to separate ALDH^+/CD44^+/CD24^− and ALDH^−/CD44^+/CD24^+ cells when combined with ALDH staining. Analysis was performed using a FACStarPLUS (Becton Dickinion) flow cytometer. To assess the effect of STAT3 inhibitors on the subpopulation of ALDH^+ cells, un-separated breast cancer cells were treated with 5 µmol/L of LLL12 or 10 µmol/L Stattic for 24 hours prior to performing the ALDEFLUOR assay.
After sorting by flow cytometry, ALDH^+ and ALDH^+/CD44^+/CD24^− stem-like cells were cultured in serum-free stem cell medium in ultra-low attachment six-well plates (Corning) to maintain cancer stem cell characteristics. […]
For orientation: In western blotting, separated proteins are transferred to a membrane and probed.

For test [11], the system named is SUM159 ALDH+ breast cancer stem-like cells. Nature of the test: Mouse mammary fat pad model with SUM159 ALDH+ cells. In kind it is in vivo, NOD/SCID mice. The note with it: 5 mg/kg IP daily.
Method: For mammary fat pad experiments, 1×10^5 of sorted SUM159 ALDH^+ cells, assessed using Aldefluor kit (StemCell Technologies) were injected into the humanized fat pads of NOD/SCID mice (The Jackson Laboratory), as previously described [5]. […] Tumors were measured by a caliper and the volume was calculated using V = π (width^2×length)/6. After 15 days of treatments with LLL12 or vehicle control, tumors were harvested from euthanized mice, snap-frozen in liquid nitrogen, and stored in −80°C. […] The rest of tumors tissues were homogenized to examine the expression of STAT3 phosphorylation by western blot.
Test [12] has as its target Fes (Homo sapiens, UniProt P07332). Kind of test: Kinase profiler assay, Fes. The note with it: 10 concentrations, 100 µM highest; Table S3. The class given is biochemical. How it is done:
as §1

The target in test [13] is Syk (Homo sapiens, UniProt P43405). Nature of the test: Kinase profiler assay, Syk. Particulars: 10 concentrations, 100 µM highest; Table S3. The class given is biochemical. As for the experimental part:
as §1

Test [14] has as its target Bmx (Homo sapiens, UniProt P51813). Kind of test: Kinase profiler assay, Bmx. The note with it: 10 concentrations, 100 µM highest; Table S3. The class given is biochemical. As for the experimental part: as §1
For test [15], the system named is ALDH+/CD44+/CD24− subpopulation of MDA-MB-231 and SUM159 breast cancer cells. Kind of test: Tumorsphere formation of ALDH+/CD44+/CD24− subpopulation. Particulars: Figure 5E. In kind it is cell-based, human. How it is done:
ALDH^+ and ALDH^+/CD44^+/CD24^− cells were plated as single cells in ultra-low attachment six-well plates at a density of 250, 500, 1000 or 50,000 viable cells/well as previously described. On the second day after seeding, the ALDH^+ cancer cells were treated with 2.5–10 µmol/L of LLL12 or Stattic. For tumorsphere forming capacity assay, ALDH^+ or ALDH^− cells were plated as single cells in ultra-low attachment six-well plates at a density of 250, 500 or 1000 viable cells/well. Tumorsphere growth was observed under a microscope 10 to 15 days later.

The target of test [16] is JAK2 (Homo sapiens, UniProt O60674). Kind of test: Kinase profiler assay, JAK2. In kind it is biochemical. The note with it: 10 concentrations, 100 µM highest; Table S3. How it is done:
as §1

The target of test [17] is Fyn (Homo sapiens, UniProt P06241). Kind of test: Kinase profiler assay, Fyn. Particulars: 10 concentrations, 100 µM highest; Table S3. The class given is biochemical. As for the experimental part: as §1
Chain of Fyn (P06241 whole entry): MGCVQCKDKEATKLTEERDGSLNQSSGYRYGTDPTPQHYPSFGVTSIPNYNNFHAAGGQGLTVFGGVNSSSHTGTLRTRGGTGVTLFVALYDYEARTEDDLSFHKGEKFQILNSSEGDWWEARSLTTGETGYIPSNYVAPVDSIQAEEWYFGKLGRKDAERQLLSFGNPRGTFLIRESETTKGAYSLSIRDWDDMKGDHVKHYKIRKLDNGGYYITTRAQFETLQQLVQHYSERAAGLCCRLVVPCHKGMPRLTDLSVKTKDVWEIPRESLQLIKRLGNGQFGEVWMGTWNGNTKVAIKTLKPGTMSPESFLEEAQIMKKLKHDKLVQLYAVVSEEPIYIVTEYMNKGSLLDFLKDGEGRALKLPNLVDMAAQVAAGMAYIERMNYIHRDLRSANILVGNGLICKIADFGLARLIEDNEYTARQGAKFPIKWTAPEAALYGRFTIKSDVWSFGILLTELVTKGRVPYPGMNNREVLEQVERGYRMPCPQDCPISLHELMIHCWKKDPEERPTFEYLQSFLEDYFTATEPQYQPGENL

Chain of c-SRC (P12931 whole entry): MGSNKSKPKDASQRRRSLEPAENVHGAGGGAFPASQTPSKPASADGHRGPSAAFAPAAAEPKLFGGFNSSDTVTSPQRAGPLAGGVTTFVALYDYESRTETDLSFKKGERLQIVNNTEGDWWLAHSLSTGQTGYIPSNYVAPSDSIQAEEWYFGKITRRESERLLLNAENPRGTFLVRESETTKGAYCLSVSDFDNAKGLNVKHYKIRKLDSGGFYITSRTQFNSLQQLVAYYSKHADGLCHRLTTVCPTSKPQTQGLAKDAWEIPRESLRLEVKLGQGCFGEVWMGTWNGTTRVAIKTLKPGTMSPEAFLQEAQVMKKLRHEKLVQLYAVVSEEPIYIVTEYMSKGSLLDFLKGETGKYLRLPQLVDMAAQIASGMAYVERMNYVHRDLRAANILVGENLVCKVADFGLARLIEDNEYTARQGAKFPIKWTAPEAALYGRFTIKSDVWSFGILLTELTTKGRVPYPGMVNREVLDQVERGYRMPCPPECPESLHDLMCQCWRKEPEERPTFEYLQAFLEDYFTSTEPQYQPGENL
Chain of Fes (P07332 whole entry): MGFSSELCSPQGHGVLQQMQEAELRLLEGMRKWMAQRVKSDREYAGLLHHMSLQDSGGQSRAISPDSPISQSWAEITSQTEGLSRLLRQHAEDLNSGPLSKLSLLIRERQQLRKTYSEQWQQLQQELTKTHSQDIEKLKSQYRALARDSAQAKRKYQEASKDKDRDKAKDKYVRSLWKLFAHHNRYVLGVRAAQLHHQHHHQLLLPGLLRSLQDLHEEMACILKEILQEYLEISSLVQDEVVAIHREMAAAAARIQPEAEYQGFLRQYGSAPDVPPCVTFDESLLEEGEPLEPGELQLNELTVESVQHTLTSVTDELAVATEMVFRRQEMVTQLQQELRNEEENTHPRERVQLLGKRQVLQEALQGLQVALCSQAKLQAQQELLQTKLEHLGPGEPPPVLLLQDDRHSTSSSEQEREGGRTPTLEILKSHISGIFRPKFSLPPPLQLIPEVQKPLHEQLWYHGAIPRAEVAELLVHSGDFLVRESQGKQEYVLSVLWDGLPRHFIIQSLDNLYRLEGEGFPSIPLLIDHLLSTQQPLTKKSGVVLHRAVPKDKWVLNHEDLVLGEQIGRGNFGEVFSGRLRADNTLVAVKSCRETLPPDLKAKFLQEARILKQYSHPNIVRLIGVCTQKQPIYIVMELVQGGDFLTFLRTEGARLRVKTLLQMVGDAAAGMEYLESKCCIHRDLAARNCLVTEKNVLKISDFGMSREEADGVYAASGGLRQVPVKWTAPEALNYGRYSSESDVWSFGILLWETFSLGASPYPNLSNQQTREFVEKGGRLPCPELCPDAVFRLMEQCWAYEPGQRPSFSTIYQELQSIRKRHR
Chain of PDK1 (O15530 whole entry): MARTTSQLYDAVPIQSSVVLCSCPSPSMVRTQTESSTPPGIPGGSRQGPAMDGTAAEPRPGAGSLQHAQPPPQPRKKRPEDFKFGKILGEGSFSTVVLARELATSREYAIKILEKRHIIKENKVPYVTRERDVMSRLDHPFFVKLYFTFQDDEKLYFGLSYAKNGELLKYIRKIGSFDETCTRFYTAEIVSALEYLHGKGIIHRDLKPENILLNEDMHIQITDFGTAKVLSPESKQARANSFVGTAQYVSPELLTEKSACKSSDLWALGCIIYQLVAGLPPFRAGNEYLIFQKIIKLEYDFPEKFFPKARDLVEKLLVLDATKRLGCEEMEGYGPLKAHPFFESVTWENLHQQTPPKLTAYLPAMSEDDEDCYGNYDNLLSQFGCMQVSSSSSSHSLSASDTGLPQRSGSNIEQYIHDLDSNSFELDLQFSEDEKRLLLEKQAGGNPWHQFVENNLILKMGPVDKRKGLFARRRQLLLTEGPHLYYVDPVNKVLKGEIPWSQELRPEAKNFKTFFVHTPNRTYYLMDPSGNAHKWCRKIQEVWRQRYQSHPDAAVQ
Chain of Bmx (P51813 whole entry): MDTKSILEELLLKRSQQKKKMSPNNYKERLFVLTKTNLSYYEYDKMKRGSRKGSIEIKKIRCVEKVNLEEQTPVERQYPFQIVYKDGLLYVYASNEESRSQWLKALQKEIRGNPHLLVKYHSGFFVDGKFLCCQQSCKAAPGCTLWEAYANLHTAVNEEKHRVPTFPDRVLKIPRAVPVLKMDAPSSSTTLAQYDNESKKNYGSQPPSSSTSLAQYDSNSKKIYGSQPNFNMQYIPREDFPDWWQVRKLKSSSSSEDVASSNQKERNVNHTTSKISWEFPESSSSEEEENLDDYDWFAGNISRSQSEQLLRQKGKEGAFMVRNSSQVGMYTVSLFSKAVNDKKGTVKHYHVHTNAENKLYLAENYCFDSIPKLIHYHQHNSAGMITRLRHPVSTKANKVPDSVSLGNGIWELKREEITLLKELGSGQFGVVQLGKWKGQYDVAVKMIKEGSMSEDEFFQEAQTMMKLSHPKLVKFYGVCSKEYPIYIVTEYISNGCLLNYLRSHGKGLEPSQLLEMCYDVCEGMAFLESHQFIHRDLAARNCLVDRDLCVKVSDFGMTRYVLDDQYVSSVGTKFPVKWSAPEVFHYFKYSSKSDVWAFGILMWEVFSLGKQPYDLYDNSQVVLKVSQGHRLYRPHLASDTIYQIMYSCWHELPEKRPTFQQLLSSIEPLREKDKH
Chain of EGFR (P00533 25-1210): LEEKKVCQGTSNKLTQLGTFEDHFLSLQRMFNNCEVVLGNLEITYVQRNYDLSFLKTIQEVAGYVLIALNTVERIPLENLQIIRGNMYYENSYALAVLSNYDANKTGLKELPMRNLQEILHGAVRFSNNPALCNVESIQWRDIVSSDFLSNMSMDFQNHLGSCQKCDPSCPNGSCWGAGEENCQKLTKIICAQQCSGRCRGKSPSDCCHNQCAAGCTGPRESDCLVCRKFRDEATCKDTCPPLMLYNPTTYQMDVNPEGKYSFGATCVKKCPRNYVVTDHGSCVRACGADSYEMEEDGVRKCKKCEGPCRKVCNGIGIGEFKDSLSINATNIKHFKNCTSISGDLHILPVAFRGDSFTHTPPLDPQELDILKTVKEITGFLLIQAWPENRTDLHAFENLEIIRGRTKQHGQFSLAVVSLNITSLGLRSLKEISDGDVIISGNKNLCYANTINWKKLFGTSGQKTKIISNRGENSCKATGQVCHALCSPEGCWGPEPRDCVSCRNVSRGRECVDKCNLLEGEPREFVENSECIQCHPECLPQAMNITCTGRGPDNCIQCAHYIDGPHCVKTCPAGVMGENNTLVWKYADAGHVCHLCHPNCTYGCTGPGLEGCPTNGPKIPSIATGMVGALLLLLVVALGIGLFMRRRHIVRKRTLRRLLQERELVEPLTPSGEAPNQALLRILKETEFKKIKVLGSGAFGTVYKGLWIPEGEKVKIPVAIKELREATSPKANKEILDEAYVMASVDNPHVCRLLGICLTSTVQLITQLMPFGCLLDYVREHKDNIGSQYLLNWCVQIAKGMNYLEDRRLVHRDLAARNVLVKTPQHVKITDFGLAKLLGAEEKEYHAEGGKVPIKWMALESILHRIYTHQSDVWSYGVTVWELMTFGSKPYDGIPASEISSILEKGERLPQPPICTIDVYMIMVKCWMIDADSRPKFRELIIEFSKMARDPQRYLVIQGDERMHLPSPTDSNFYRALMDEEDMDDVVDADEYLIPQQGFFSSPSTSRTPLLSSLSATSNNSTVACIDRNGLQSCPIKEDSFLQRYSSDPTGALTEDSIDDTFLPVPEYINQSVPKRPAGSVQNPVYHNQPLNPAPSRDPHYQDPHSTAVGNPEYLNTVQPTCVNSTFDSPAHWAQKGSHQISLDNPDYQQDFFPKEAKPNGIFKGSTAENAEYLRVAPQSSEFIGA

With `NS(=O)(=O)c1cccc2c1C(=O)c1cccc(O)c1C2=O` [LLL12], the IC50 in test [1] was at least 77.9 µM; in [2] it was at least 77.9 µM; in [3] it was above 100 µM; in test [4], above 100 µM; in [9], at least 77.9 µM; in [12] it was above 100 µM. Further, the IC50 in [13], in test [14], in test [16] and in test [17] was above 100 µM throughout. For the same compound, in [5], the “STAT3 DNA binding activity” value is on record as “inhibited”. In addition, in [6], the cell viability entry was “inhibited”. The “expression of ALDH1 protein” value in test [7] was “down-regulated”. Further, the “apoptosis (cleaved PARP and Caspase-3)” value in test [8] is “induced apoptosis”. In addition, in test [10], the STAT3 phosphorylation entry is listed as “inhibited”. In addition, the “STAT3 phosphorylation in tumor” value in test [11] is reported as “significant suppresses”. In addition, in test [11] (15 days, P<0.05), the tumor mass entry was “significant suppresses”. The tumor volume entry in [11] (15 days, P<0.05) was “significant suppresses”. In addition, in test [15], the tumorsphere forming capacity entry is on record as “inhibited”.

Source of the values: publication PMC3871589, “Evaluation of STAT3 Signaling in ALDH+ and ALDH+/CD44+/CD24− Subpopulations of Breast Cancer Cells” (PLoS ONE, 2013).
